For six compounds, IC50 results are on record in the Kinase Knowledgebase extract (Sharma et al. 2016).

Each structure is given as a SMILES string.

One assay concerns the target CDK2 (human) (UniProt P24941). In words: Enzyme Assay.
In general, IC50 refers to the concentration that gives 50% inhibition. Low values mean inhibition by little substance, high ones a need for much substance. Compound `COc1cccc(C(=O)c2sc(Nc3ccc(N4CCC(N5CCCC(O)C5)CC4)cc3)nc2N)c1` (configuration not stated) showed an IC50 of 970 nM.

`CCc1cccc(C(=O)c2sc(Nc3ccc(N4CCC(N5CCNCC5)CC4)cc3)nc2N)c1` returned an IC50 of 989 nM.

`Cc1cccc(C(=O)c2sc(Nc3ccc(N4CCC(N5CCCCC5)CC4)cc3)nc2N)c1` showed an IC50 of 2920 nM.

Compound `Nc1nc(Nc2ccc(N3CCC(N4CCCC4)CC3)cc2)sc1C(=O)c1ccc2c(c1)OCCO2` yielded an IC50 of 3490 nM.

A further assay addresses CDK2 (human) (UniProt P24941). Nature of the assay: Enzyme Assay. The source holds these as a separate data set.
`Cc1cccc(C(=O)c2sc(Nc3ccc(N4CCC(N(C)C)CC4)cc3)nc2N)c1` registered an IC50 of 3520 nM.

For the compound `Cc1cccc(C(=O)c2sc(Nc3ccc(N4CCC(N5CCCCC5)CC4)cc3)nc2N)c1`, the IC50 was 2920 nM.

Compound `Cc1cccc(C(=O)c2sc(Nc3ccc(N4CCC(N5CCCC5)CC4)cc3)nc2N)c1` displayed an IC50 of 2620 nM.
